One assay deals with T1, human Chk1 kinase (Homo sapiens, UniProt O14757).
T1 sequence (O14757 1-476): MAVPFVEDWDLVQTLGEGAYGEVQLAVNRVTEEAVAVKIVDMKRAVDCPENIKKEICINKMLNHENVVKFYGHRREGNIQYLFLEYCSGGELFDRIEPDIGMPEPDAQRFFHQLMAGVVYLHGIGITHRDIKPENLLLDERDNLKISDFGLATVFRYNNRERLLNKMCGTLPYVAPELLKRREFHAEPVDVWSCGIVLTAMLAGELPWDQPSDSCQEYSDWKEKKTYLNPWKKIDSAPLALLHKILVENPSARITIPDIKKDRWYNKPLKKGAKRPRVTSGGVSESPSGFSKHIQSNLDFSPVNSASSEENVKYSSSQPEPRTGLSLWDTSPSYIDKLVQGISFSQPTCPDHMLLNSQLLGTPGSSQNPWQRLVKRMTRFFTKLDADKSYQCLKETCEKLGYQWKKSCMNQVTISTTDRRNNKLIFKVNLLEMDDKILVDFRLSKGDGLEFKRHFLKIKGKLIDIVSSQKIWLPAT
The assay can be described thus: biochemical.

For another assay, the target named is human Chk2 kinase (Homo sapiens, UniProt O96017). The assay can be described thus: biochemical.
human Chk2 kinase, sequence (O96017 whole entry): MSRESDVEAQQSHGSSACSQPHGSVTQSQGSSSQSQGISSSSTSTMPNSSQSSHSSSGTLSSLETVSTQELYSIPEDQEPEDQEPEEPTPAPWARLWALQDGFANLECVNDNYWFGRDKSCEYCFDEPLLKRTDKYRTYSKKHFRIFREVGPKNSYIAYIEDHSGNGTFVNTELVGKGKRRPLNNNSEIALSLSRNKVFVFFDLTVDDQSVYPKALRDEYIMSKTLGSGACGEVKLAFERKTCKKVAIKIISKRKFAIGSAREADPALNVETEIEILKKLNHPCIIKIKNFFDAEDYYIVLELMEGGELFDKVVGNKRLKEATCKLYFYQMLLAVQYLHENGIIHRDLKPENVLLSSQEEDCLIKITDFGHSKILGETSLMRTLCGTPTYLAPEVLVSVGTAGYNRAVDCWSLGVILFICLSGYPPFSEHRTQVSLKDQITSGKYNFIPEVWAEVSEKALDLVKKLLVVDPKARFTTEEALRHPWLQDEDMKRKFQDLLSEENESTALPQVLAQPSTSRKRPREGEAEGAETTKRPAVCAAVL

Experimental findings from patent publication US20260132140A1, “IMIDAZOLYL-AMINO-PYRAZINE-CARBONITRILS AS CHK-1 INHIBITORS” (BenevolentAI Bio Limited, priority 2022, published 2026) are described below.

A word on the IC50: it is the point on the concentration scale where inhibition reaches its midpoint. Low readings indicate inhibition by little substance, high ones a need for much substance.

On to `COc1cc(N(C)CC2CCN(C)CC2)ccc1-n1cnc(Nc2cnc(C#N)cn2)c1` [Example 36, 5-((1-(2-Methoxy-4-(methyl((1-methylpiperidin-4-yl)methyl)amino)phenyl)-1H-imidazol-4-yl)amino)pyrazine-2-carbonitrile], for which the IC50 against human Chk1 kinase fell in the range of 31.6 to 100 nM; against human Chk2 kinase, 10000 to 100000 nM.
Consider `CN(C)C1CCN(c2ccc(-n3cnc(Nc4cnc(C#N)cn4)c3)cc2)CC1` [Example 37, 5-((1-(4-(4-(Dimethylamino)piperidin-1-yl)phenyl)-1H-imidazol-4-yl)amino)pyrazine-2-carbonitrile], for which the concentration for half-maximal inhibition (IC50) is under 10 nM against human Chk1 kinase and 1000 to 10000 nM on human Chk2 kinase.
In the case of `CN(C)[C@@H]1CCN(c2cccc(-n3cnc(Nc4cnc(C#N)cn4)c3)c2)C1` [Example 38, (R)-5-((1-(3-(3-(Dimethylamino)pyrrolidin-1-yl)phenyl)-1H-imidazol-4-yl)amino)pyrazine-2-carbonitrile], the IC50 was 10 to 31.6 nM at human Chk1 kinase and 10000 to 100000 nM against human Chk2 kinase.
The like results for `CN1CCC2(CC1)CCN(c1cccc(-n3cnc(Nc4cnc(C#N)cn4)c3)c1)C2` [Example 39, 5-((1-(3-(8-Methyl-2,8-diazaspiro[4.5]decan-2-yl)phenyl)-1H-imidazol-4-yl)amino)pyrazine-2-carbonitrile] were, in that order, 10 to 31.6 nM and 10000 to 100000 nM.
With `CCN1CCC(Nc2ccc(-n3cnc(Nc4cnc(C#N)cn4)c3)c(OC)c2)CC1` [Example 41, 5-((1-(4-((1-Ethylpiperidin-4-yl)amino)-2-methoxyphenyl)-1H-imidazol-4-yl)amino)pyrazine-2-carbonitrile], the IC50 lay within 10 to 31.6 nM on human Chk1 kinase and 10000 to 100000 nM against human Chk2 kinase.
The like results for `CN1C[C@@H]2CC[C@H]1CN2c1ccc(-n2cnc(Nc3cnc(C#N)cn3)c2)cc1` [Example 42, 5-((1-(4-((1S,4S)-5-Methyl-2,5-diazabicyclo[2.2.2]octan-2-yl)phenyl)-1H-imidazol-4-yl)amino)pyrazine-2-carbonitrile] were, in that order, under 10 nM and 10000 to 100000 nM.
The like results for `CN1CCC(N(C)c2cccc(-n3cnc(Nc4cnc(C#N)cn4)c3)c2)CC1` [Example 43, 5-((1-(3-(Methyl(1-methylpiperidin-4-yl)amino)phenyl)-1H-imidazol-4-yl)amino)pyrazine-2-carbonitrile] were, in that order, 31.6 to 100 nM and 10000 to 100000 nM.
For `COc1cc(N2C[C@H]3C[C@@H]2CN3C)ccc1-n1cnc(Nc2cnc(C#N)cn2)c1` [Example 44, 5-((1-(2-Methoxy-4-((1R,4R)-5-methyl-2,5-diazabicyclo[2.2.1]heptan-2-yl)phenyl)-1H-imidazol-4-yl)amino)pyrazine-2-carbonitrile] the same measures were 10 to 31.6 nM and 10000 to 100000 nM.
Turning to `CC(C)(C)N1CC(Oc2ccc(-n3cnc(Nc4cnc(C#N)cn4)c3)cc2)C1` [Example 45, 5-((1-(4-((1-(tert-Butyl)azetidin-3-yl)oxy)phenyl)-1H-imidazol-4-yl)amino)pyrazine-2-carbonitrile], the results for the IC50 against human Chk1 kinase and against human Chk2 kinase were 10 to 31.6 nM and 10000 to 100000 nM, respectively.
For `COc1cc(N2CC3(CN(C)C3)C2)ccc1-n1cnc(Nc2cnc(C#N)cn2)c1` [Example 46, 5-((1-(2-Methoxy-4-(6-methyl-2,6-diazaspiro[3.3]heptan-2-yl)phenyl)-1H-imidazol-4-yl)amino)pyrazine-2-carbonitrile] the same measures were 10 to 31.6 nM and 10000 to 100000 nM.
Consider `CCCN1CC(Oc2cccc(-n3cnc(Nc4cnc(C#N)cn4)c3)c2)C1` [Example 48, 5-((1-(3-((1-Propylazetidin-3-yl)oxy)phenyl)-1H-imidazol-4-yl)amino)pyrazine-2-carbonitrile], for which the values for the concentration for half-maximal inhibition (IC50) against human Chk1 kinase and on human Chk2 kinase were 31.6 to 100 nM and over 100000 nM, respectively.
On to `COc1cc(N2CC[C@@H](N3CCCC3)C2)ccc1-n1cnc(Nc2cnc(C#N)cn2)c1` [Example 51, (R)-5-((1-(4-([1,3′-Bipyrrolidin]-1′-yl)-2-methoxyphenyl)-1H-imidazol-4-yl)amino)pyrazine-2-carbonitrile], for which the IC50 at human Chk1 kinase was under 10 nM; on human Chk2 kinase, 1000 to 10000 nM.
For `COc1cc(OC2CN(C(C)(C)C)C2)ccc1-n1cnc(Nc2cnc(C#N)cn2)c1` [Example 53, 5-((1-(4-((1-(tert-Butyl)azetidin-3-yl)oxy)-2-methoxyphenyl)-1H-imidazol-4-yl)amino)pyrazine-2-carbonitrile], the IC50 against human Chk1 kinase lay within 10 to 31.6 nM; at human Chk2 kinase it was 10000 to 100000 nM.
For `Cc1cc(CN2CC[C@@H](F)C2)cc(C(F)(F)F)c1-n1cnc(Nc2cnc(C#N)cn2)c1` [Example 54, (R)-5-((1-(4-((3-Fluoropyrrolidin-1-yl)methyl)-2-methyl-6-(trifluoromethyl)phenyl)-1H-imidazol-4-yl)amino)pyrazine-2-carbonitrile] the same measures were 100 to 316 nM and over 100000 nM.
For `COc1cc(N2C[C@H]3CCN(C)[C@H]3C2)ccc1-n1cnc(Nc2cnc(C#N)cn2)c1` [Example 55, 5-((1-(2-Methoxy-4-((3aR,6aR)-1-methylhexahydropyrrolo[3,4-b]pyrrol-5(1H)-yl)phenyl)-1H-imidazol-4-yl)amino)pyrazine-2-carbonitrile] the same measures were 10 to 31.6 nM and 10000 to 100000 nM.
For `CN1C[C@H](F)[C@H](Oc2cccc(-n3cnc(Nc4cnc(C#N)cn4)c3)c2)C1` [Example 56, 5-((1-(3-(((3R,4S)-4-fluoro-1-methylpyrrolidin-3-yl)oxy)phenyl)-1H-imidazol-4-yl)amino)pyrazine-2-carbonitrile] the same measures were 100 to 316 nM and 10000 to 100000 nM.
`Cc1cc(CN2CC[C@@H](F)C2)cc(C)c1-n1cnc(Nc2cnc(C#N)cn2)c1` [Example 57, (R)-5-((1-(4-((3-Fluoropyrrolidin-1-yl)methyl)-2,6-dimethylphenyl)-1H-imidazol-4-yl)amino)pyrazine-2-carbonitrile]: the IC50 at human Chk1 kinase is 316 to 1000 nM; at human Chk2 kinase, over 100000 nM.
Take `Cc1ccc(-n2cnc(Nc3cnc(C#N)cn3)c2)cc1N1CC[C@@H](N(C)C)C1` [Example 58, (R)-5-((1-(3-(3-(Dimethylamino)pyrrolidin-1-yl)-4-methylphenyl)-1H-imidazol-4-yl)amino)pyrazine-2-carbonitrile]: the figures for the concentration for half-maximal inhibition (IC50) against human Chk1 kinase and against human Chk2 kinase were 31.6 to 100 nM and 10000 to 100000 nM, respectively.
As for `CN1CCC2(CC1)CCN(c1ccc(-n3cnc(Nc4cnc(C#N)cn4)c3)cc1)C2` [Example 60, 5-((1-(4-(8-Methyl-2,8-diazaspiro[4.5]decan-2-yl)phenyl)-1H-imidazol-4-yl)amino)pyrazine-2-carbonitrile], the concentration for half-maximal inhibition (IC50) is 31.6 to 100 nM on human Chk1 kinase and 10000 to 100000 nM at human Chk2 kinase.
For `CN(C)[C@H]1CN(c2ccc(-n3cnc(Nc4cnc(C#N)cn4)c3)cc2)C[C@H]1F` [Example 62, 5-((1-(4-((3S,4R)-3-(Dimethylamino)-4-fluoropyrrolidin-1-yl)phenyl)-1H-imidazol-4-yl)amino)pyrazine-2-carbonitrile] the same measures were 10 to 31.6 nM and 1000 to 10000 nM.
The like results for `CN(C)[C@H]1CN(c2ccc(-n3cnc(Nc4cnc(C#N)cn4)c3)cc2)C[C@@H]1F` [Example 63, 5-((1-(4-((3S,4S)-3-(Dimethylamino)-4-fluoropyrrolidin-1-yl)phenyl)-1H-imidazol-4-yl)amino)pyrazine-2-carbonitrile] were, in that order, under 10 nM and 1000 to 10000 nM.
The like results for `CN(C)C[C@@H]1CCCN1c1ccc(-n2cnc(Nc3cnc(C#N)cn3)c2)cc1` [Example 66, (S)-5-((1-(4-(2-((Dimethylamino)methyl)pyrrolidin-1-yl)phenyl)-1H-imidazol-4-yl)amino)pyrazine-2-carbonitrile] were, in that order, 31.6 to 100 nM and 10000 to 100000 nM.
Regarding `CN(C)[C@@H]1CCN(c2ccc(-n3cnc(Nc4cnc(C#N)cn4)c3)cc2C(F)(F)F)C1` [Example 70, (R)-5-((1-(4-(3-(Dimethylamino)pyrrolidin-1-yl)-3-(trifluoromethyl)phenyl)-1H-imidazol-4-yl)amino)pyrazine-2-carbonitrile], the values for the IC50 against human Chk1 kinase and at human Chk2 kinase were 31.6 to 100 nM and 1000 to 10000 nM, respectively.
The like results for `N#Cc1cnc(Nc2cn(-c3ccc(N4CC[C@@H](N5CCOCC5)C4)cc3)cn2)cn1` [Example 72, (R)-5-((1-(4-(3-Morpholinopyrrolidin-1-yl)phenyl)-1H-imidazol-4-yl)amino)pyrazine-2-carbonitrile] were, in that order, 10 to 31.6 nM and 10000 to 100000 nM.
Consider `CN(C)[C@@H]1CCN(c2ccc(-n3cnc(Nc4cnc(C#N)cn4)c3)nc2C(F)(F)F)C1` [Example 77, (R)-5-((1-(5-(3-(Dimethylamino)pyrrolidin-1-yl)-6-(trifluoromethyl)pyridin-2-yl)-1H-imidazol-4-yl)amino)pyrazine-2-carbonitrile], for which the IC50 on human Chk1 kinase is 10 to 31.6 nM; on human Chk2 kinase, 10000 to 100000 nM.
For `CN1C[C@@H]2CN(c3ccc(-n4cnc(Nc5cnc(C#N)cn5)c4)c(F)c3)[C@@H]2C1` [Example 80, 5-((1-(2-Fluoro-4-((1R,5S)-3-methyl-3,6-diazabicyclo[3.2.0]heptan-6-yl)phenyl)-1H-imidazol-4-yl)amino)pyrazine-2-carbonitrile] the same measures were 31.6 to 100 nM and 10000 to 100000 nM.
Take `CN1C[C@H]2CN(c3ccc(-n4cnc(Nc5cnc(C#N)cn5)c4)c(F)c3)[C@H]2C1` [Example 81, 5-((1-(2-Fluoro-4-((1S,5R)-3-methyl-3,6-diazabicyclo[3.2.0]heptan-6-yl)phenyl)-1H-imidazol-4-yl)amino)pyrazine-2-carbonitrile]: the half-inhibitory concentration (IC50) at human Chk1 kinase lay within 31.6 to 100 nM; against human Chk2 kinase it was 1000 to 10000 nM.
